Measured values taken from the supplement of paper PMC10307832.

Experiments:
Assay in all cases: relative viability (nuclei count vs DMSO), 5 days (fraction); higher = more cells survive
AGI-6780 + Tozasertib = compound: O=C(Nc1cccc(C(F)(F)F)c1)Nc1cc(S(=O)(=O)NC2CC2)ccc1-c1ccsc1 [AGI-6780] + Cc1cc(Nc2cc(N3CCN(C)CC3)nc(Sc3ccc(NC(=O)C4CC4)cc3)n2)n[nH]1 [Tozasertib] (partner 0.1 µM)
In short: (§1)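 Values are medians from duplicate plates. Each reflects relative viability, defined as the nuclei count of treated wells over that of vehicle wells. Lung cancer cell lines in 1536-well plates were pin-tool dosed one day after seeding with one drug alone or with a fixed anchor-drug dose plus five library-drug doses (not always all listed) in √10 steps, then fixed, stained and imaged at 4× after 5 days.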

AGI-6780 + Foretinib = compound: O=C(Nc1cccc(C(F)(F)F)c1)Nc1cc(S(=O)(=O)NC2CC2)ccc1-c1ccsc1 [AGI-6780] + COc1cc2c(Oc3ccc(NC(=O)C4(C(=O)Nc5ccc(F)cc5)CC4)cc3F)ccnc2cc1OCCCN1CCOCC1 [Foretinib] (partner 0.25 µM)
In short: as §1

AGI-6780 + Luminespib = compound: O=C(Nc1cccc(C(F)(F)F)c1)Nc1cc(S(=O)(=O)NC2CC2)ccc1-c1ccsc1 [AGI-6780] + CCNC(=O)c1noc(-c2cc(C(C)C)c(O)cc2O)c1-c1ccc(CN2CCOCC2)cc1 [Luminespib] (partner 0.01 µM)
In short: as §1

AGI-6780 + AZD7762 = compound: O=C(Nc1cccc(C(F)(F)F)c1)Nc1cc(S(=O)(=O)NC2CC2)ccc1-c1ccsc1 [AGI-6780] + NC(=O)Nc1cc(-c2cccc(F)c2)sc1C(=O)N[C@H]1CCCNC1 [AZD7762] (partner 0.2 µM)
In short: as §1

Row | Cell Line | relative viability (AGI-6780 + Tozasertib; first compound 0.08 µM) | relative viability (AGI-6780 + Tozasertib; first compound 0.253 µM) | relative viability (AGI-6780 + Tozasertib; first compound 0.8 µM) | relative viability (AGI-6780 + Tozasertib; first compound 2.53 µM) | relative viability (AGI-6780 + Tozasertib; first compound 8 µM) | relative viability (AGI-6780 + Foretinib; first compound 0.08 µM) | relative viability (AGI-6780 + Foretinib; first compound 0.253 µM) | relative viability (AGI-6780 + Foretinib; first compound 0.8 µM) | relative viability (AGI-6780 + Foretinib; first compound 2.53 µM) | relative viability (AGI-6780 + Foretinib; first compound 8 µM) | relative viability (AGI-6780 + Luminespib; first compound 0.08 µM) | relative viability (AGI-6780 + Luminespib; first compound 0.253 µM) | relative viability (AGI-6780 + Luminespib; first compound 0.8 µM) | relative viability (AGI-6780 + Luminespib; first compound 2.53 µM) | relative viability (AGI-6780 + Luminespib; first compound 8 µM) | relative viability (AGI-6780 + AZD7762; first compound 0.08 µM) | relative viability (AGI-6780 + AZD7762; first compound 0.253 µM) | relative viability (AGI-6780 + AZD7762; first compound 0.8 µM) | relative viability (AGI-6780 + AZD7762; first compound 2.53 µM) | relative viability (AGI-6780 + AZD7762; first compound 8 µM)
1 | 201T | 0.916 | 0.95 | 0.938 | 0.835 | 0.968 | 1.09 | 1.08 | 1.2 | 1.09 | 1.05 | 1.09 | 1.04 | 1.06 | 0.988 | 1.08 | 0.612 | 0.577 | 0.565 | 0.535 | 0.656
2 | A549 | – | – | – | – | – | 1.04 | 0.956 | 0.88 | 0.729 | 1.07 | – | – | – | – | – | – | – | – | – | –
3 | A-427 | 0.264 | 0.217 | 0.19 | 0.154 | 0.168 | 0.991 | 0.951 | 1.15 | 0.825 | 1.19 | 0.943 | 0.717 | 0.882 | 0.802 | 0.97 | – | 0.706 | 0.806 | 0.766 | 0.783
4 | ABC-1 | 0.186 | 0.212 | 0.17 | 0.206 | 0.167 | 1.13 | 1.17 | 1.11 | 1.07 | 0.941 | 0.58 | 0.447 | 0.63 | 0.821 | 0.408 | 0.774 | 0.967 | 0.891 | – | 1.08
5 | BEN | 0.526 | 0.497 | 0.503 | 0.433 | 0.425 | 0.481 | 0.654 | 0.662 | 0.533 | 0.619 | 0.355 | 0.331 | 0.37 | 0.33 | 0.358 | 0.6 | 0.737 | 0.754 | – | 0.721
6 | CAL-12T | 0.389 | 0.32 | 0.3 | 0.276 | 0.31 | 1 | 1.15 | 1.13 | 1.34 | 1.11 | 0.245 | 0.58 | 0.644 | 0.476 | 0.402 | 0.616 | 0.649 | 0.806 | 0.781 | 0.687
7 | COR-L23 | 0.224 | 0.216 | 0.206 | 0.213 | 0.178 | 1.03 | 0.948 | 0.883 | 1.06 | 0.837 | 0.772 | 0.641 | 0.695 | 0.663 | 0.643 | – | – | – | – | –
8 | COR-L 105 | 0.402 | 0.357 | 0.388 | 0.336 | 0.441 | 1.09 | 0.922 | 0.962 | 1.25 | 0.981 | 0.81 | 0.654 | 0.725 | 0.618 | 0.535 | – | – | – | – | –
9 | Calu-6 | – | – | – | – | – | 0.88 | 0.871 | 0.96 | 0.89 | 0.885 | – | – | – | – | – | – | – | – | – | –
10 | ChaGo-K-1 | 0.238 | 0.229 | 0.221 | 0.197 | 0.222 | 0.986 | 0.977 | 0.946 | 0.751 | 0.948 | 0.573 | 0.467 | 0.64 | 0.497 | 0.76 | 0.851 | 0.932 | 0.932 | 0.812 | 0.919
11 | EKVX | 0.349 | 0.39 | 0.412 | 0.335 | 0.366 | 0.684 | 0.91 | 0.756 | 0.399 | 0.849 | 0.916 | 0.877 | 0.989 | 0.918 | 0.847 | 0.675 | 0.728 | 0.806 | 0.681 | 0.641
12 | EMC-BAC-2 | 0.278 | 0.295 | 0.249 | 0.253 | 0.324 | 1.05 | 1.04 | 0.961 | 0.842 | 1.18 | 1.2 | 1.24 | 1.17 | 0.947 | 1.18 | – | 1.15 | 1.16 | 0.877 | 1.02
13 | EPLC-272H | – | 0.307 | 0.281 | 0.187 | 0.257 | – | 0.762 | 0.891 | 0.489 | 0.619 | – | 0.359 | 0.267 | 0.166 | 0.244 | 0.2 | 0.369 | 0.345 | 0.278 | 0.219
14 | H3255 | 0.593 | 0.52 | 0.462 | 0.585 | 0.552 | 0.928 | 0.798 | 1.03 | 0.909 | 0.85 | 0.808 | 0.925 | 0.905 | 0.852 | 0.949 | 0.834 | 0.918 | 1.05 | 1.01 | 0.875
15 | HARA | 0.0824 | 0.106 | 0.114 | 0.0867 | 0.111 | 0.957 | 0.864 | 0.963 | 0.83 | 0.91 | 0.787 | 0.594 | 0.177 | 0.944 | 0.93 | 0.541 | 0.611 | 0.223 | 0.367 | 0.313
16 | HCC-15 | 0.625 | 0.438 | 0.547 | 0.186 | 0.458 | 1.1 | 1.03 | 1.1 | 0.871 | 0.968 | 0.407 | 0.247 | 0.274 | 0.38 | 0.3 | 1.18 | 1.32 | 1.34 | 1.43 | 1.25
17 | HCC-44 | 0.831 | 1.02 | 1.25 | 0.981 | 0.814 | – | – | – | – | – | 1.18 | 1.01 | 1.16 | 1.09 | 0.982 | 0.916 | 1.11 | 1.04 | 1.07 | 1.04
18 | HCC-78 | – | 0.404 | 0.452 | 0.304 | 0.438 | – | 0.53 | 0.676 | 0.606 | 0.688 | – | – | – | – | – | 0.978 | 0.697 | 0.837 | 0.684 | 0.681
19 | HCC-366 | 0.102 | 0.184 | 0.0941 | 0.0598 | 0.0437 | 0.857 | 0.951 | 0.96 | 0.881 | 0.828 | – | – | – | – | – | 0.232 | 0.293 | 0.34 | 0.35 | 0.193
